ChEMBL document CHEMBL1201862, “PubChem BioAssay data set” (2004)
Calls of active or inactive are those of the source.

Legend:
[1] = HepG2 cell cytotoxicity, dose response, cytotoxicity control for non-replicating M. tuberculosis project (AID 489018); type: functional; details: Mycobacterium tuberculosis
[2] = molecular target: Sphingosine 1-phosphate receptor 1 (Homo sapiens, UniProt P21453); type: functional;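 also: Tango beta-arrestin reporter U2OS cells stimulated with S1P near its EC80; inhibitor potency meaning antagonism of receptor activation by the natural agonist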
[3] = molecular target: T1, Sphingosine 1-phosphate receptor 4 (Homo sapiens, UniProt O95977); test: Fluorescence dose response cell-based high throughput screening assay for antagonists of the Sphingosine 1-Phosphate Receptor 4 (S1P4). [Related pubchem assays: 1524 (Confirmation in triplicates.), 1510 (Primary screen.)]; type: functional
T1 sequence (O95977 whole entry): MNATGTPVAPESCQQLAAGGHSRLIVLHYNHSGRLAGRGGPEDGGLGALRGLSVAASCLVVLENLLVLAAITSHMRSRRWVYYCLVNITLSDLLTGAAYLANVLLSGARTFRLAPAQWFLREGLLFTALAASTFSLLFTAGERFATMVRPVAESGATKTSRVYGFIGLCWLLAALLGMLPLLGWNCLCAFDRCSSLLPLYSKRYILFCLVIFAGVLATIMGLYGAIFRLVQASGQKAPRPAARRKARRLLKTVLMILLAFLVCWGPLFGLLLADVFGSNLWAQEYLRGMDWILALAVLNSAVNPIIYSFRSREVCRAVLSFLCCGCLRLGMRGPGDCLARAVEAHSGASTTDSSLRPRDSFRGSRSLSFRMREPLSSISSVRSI

CHO = CHO cell viability loss, potency – luminescence, cytotoxicity control for TLR9-MyD88 binding inhibitor project, dose response (AID 588339); type: functional, cell-based, hamster; details: Cricetulus griseus;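 also: CHO cells stably coexpressing TLR9 and MyD88 fusions from primary screen; compound exposure lasted 48 hours before viability readout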
[4] = NIH3T3 cell viability loss – ATP luminescence, mouse fibroblasts, counter-screen, dose response (AID 2010); type: functional, cell-based;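 also: cells exposed to compound for about 90 hours before reading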
[5] = Vero E6 cell cytotoxicity, dose response, cytotoxicity control for non-replicating M. tuberculosis project, secondary assay (AID 492998); type: functional, VeroE6; details: Vero C1008
[6] = THP-1 cell cytotoxicity, dose response, cytotoxicity control for non-replicating M. tuberculosis project (AID 489025); type: functional
[7] = molecular target: Heat shock protein HSP 90-alpha (Homo sapiens, UniProt P07900); type: functional, organism-based
Beta Lactamase = Beta Lactamase (Pseudomonas aeruginosa, UniProt Q932Y6); test: BLA reporter interference, concentration series – BLA reporter cells, FRET fluorescence, artefact control for TLR9-MyD88 binding inhibitor project, dose response (AID 588341); type: cell-based;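 also: cell based assay in CHO-K1 cells stably expressing beta-lactamase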
cells [8] = type: functional
Protein RecA = molecular target: T2, Protein RecA (Mycobacterium tuberculosis, UniProt P9WHJ3); test: Fluorescence Cell-Free Homogeneous Dose Retest to Identify Inhibitors of RecA-Intein Splicing Activity. [Related pubchem assays (depositor defined):AID2097, AID2223, AID489010, AID492950]; type: functional
T2 sequence (P9WHJ3 whole entry): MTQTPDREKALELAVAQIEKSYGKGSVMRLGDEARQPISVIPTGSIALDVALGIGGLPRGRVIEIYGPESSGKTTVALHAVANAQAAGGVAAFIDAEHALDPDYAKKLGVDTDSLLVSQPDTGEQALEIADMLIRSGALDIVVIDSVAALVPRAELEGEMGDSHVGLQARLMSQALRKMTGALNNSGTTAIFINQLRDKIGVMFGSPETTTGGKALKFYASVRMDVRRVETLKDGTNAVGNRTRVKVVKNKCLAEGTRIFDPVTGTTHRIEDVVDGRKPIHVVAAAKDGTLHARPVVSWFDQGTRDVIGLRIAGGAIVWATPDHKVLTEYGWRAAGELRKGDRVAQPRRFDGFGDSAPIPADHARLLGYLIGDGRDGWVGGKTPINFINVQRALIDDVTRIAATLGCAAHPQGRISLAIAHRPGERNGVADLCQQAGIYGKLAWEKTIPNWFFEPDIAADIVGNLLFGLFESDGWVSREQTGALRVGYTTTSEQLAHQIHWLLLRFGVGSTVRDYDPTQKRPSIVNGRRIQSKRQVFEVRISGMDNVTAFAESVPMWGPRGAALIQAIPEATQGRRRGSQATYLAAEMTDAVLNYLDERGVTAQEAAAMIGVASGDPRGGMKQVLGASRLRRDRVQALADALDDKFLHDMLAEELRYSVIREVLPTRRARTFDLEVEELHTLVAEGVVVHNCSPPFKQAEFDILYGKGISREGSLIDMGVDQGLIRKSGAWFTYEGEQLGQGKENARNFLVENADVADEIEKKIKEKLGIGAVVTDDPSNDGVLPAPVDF

HeLa = test: Cytotoxicity counterscreen assay for transcriptional activators of heat shock protein 70 (Hsp70). [Related pubchem assays: 1203, 1252 ]; type: functional; details: Homo sapiens
[9] = molecular target: T3, Replicative DNA helicase DnaB (Mycobacterium tuberculosis, UniProt P9WMR3); test: DnaB intein splicing inhibitors, dose response, biochemical, cell-free fluorescence (AID 449749); type: functional
T3 sequence (P9WMR3 whole entry): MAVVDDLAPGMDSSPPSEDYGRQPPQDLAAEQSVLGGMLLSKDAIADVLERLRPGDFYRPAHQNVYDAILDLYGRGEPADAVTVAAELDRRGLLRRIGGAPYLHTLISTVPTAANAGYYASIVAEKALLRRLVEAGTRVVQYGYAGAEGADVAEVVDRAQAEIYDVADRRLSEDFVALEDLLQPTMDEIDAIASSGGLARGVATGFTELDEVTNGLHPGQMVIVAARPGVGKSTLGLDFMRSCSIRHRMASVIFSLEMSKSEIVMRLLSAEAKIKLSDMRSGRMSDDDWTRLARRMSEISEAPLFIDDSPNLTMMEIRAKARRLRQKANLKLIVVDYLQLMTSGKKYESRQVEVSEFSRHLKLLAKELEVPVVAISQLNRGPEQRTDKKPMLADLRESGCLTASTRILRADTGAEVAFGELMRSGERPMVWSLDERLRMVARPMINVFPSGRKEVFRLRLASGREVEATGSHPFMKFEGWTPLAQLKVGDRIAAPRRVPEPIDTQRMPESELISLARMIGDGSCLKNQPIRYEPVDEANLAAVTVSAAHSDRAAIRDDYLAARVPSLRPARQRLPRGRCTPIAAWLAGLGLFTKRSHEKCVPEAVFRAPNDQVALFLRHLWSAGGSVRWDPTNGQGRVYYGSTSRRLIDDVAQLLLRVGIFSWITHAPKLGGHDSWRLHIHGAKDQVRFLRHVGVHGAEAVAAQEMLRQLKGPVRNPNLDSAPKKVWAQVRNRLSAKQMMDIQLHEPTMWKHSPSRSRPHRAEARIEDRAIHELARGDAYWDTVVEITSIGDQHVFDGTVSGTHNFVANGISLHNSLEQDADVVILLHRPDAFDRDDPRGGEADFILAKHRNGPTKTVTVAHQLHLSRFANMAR

[10] = Trypanosoma cruzi growth suppression in host cells – NIH3T3 host cells, beta-gal luminescence, confirmation (AID 2044); type: functional, cell-based;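 also: intracellular parasites grown in NIH/3T3 mouse fibroblasts as host cells; luminescent beta-galactosidase reporter signal from transgenic T. cruzi replicating inside host cells; inhibitors lower the luminescence signal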
INS1 = test: INS-1E survival protection against cytokine death – cell-based, luminescence, retest, dose response (AID 449756); type: functional; details: Rattus norvegicus;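 also: cell death triggered by IL-1 beta plus TNF-alpha plus IFN-gamma mixture; protective hits raise ATP signal compared with cytokine alone wells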
[11] = alpha-synuclein stem-loop translation blockers – luminescence, H4 neuroglioblastoma cells, dose confirmation, confirmation (AID 2454); type: functional, cell-based;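 also: H4 neuroglioblastoma cells carrying an alpha-synuclein 5'UTR luciferase reporter; potency for inhibition of the luciferase signal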
[12] = luciferase reporter signal reduction – luminescence, H4-C neuroglioblastoma cells, dose response (AID 2458); type: functional, cell-based;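 also: H4 neuroglioblastoma cells stably carrying a luciferase reporter gene fusion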
[13] = Luminescence Cell-Based Dose Response HTS to Identify Inhibitors of 5'UTR Stem-Loop Driven Prion Protein mRNA Translation in H4 Neuroglioblastoma Cells. [Related pubchem assays: 1827 (Project Summary), 1813 (Primary HTS)]; type: functional
[14] = alpha-synuclein stem-loop luciferase translation blockers – H4 neuroglioma cells, luminescence, confirmation (AID 1988); type: functional, cell-based
[15] = HEK-293T cell viability reduction – luminescence, B-cell screen hits, cytotoxicity control for BCR NF-kB inhibitor project, dose response (AID 489021); type: functional, cell-based;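 also: HEK-293T cells carrying an NF-kB luciferase reporter; cells exposed to compound for about 14 hours before viability readout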
cells [16] = type: functional, cell-based
NS3 = NS3 (Hepatitis C virus, UniProt A3EZJ3); test: PubChem AID 2173; design: species or system Hepacivirus hominis
[17] = viability of uninfected HEp-2 cells – cell-based, HTS, cytotoxicity control for RSV inhibitor project, dose response (AID 2410); type: functional; details: human respiratory syncytial virus
[18] = molecular target: G2/mitotic-specific cyclin-B1 (Homo sapiens, UniProt P14635); test: Counterscreen assay for inhibitors of Wee1 degradation: dose response cell-based assay to identify inhibitors of cyclin B degradation. [Related pubchem assays: 1410, 1321 ]; type: functional
Wee1-like protein kinase = Wee1-like protein kinase (Homo sapiens, UniProt P30291); test: Dose Response Cell-based Assay for Inhibitors of Wee1 Degradation. [Related pubchem assays: 1410, 1321 ]; type: functional
[19] = molecular target: Neuropeptide Y receptor type 1 (Homo sapiens, UniProt P25929); test: Fluorescence-based counterscreen for agonists of NPY-Y2: cell-based high-throughput dose response assay for agonists of NPY-Y1.; type: functional
[20] = off-target signal loss in HeLa-CEM21 co-culture – HeLa F-luc CTL cells, cherry-picked, counter-screen for HIV-1 Env fusion inhibitor project, dose response (AID 652040); type: functional, cell-based;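 also: potency for signal decrease marking cytotoxic or nonspecific inhibition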
[21] = molecular target: T4, COUP transcription factor 2 (Homo sapiens, UniProt P24468); test: Luminescence-based cell-based high throughput dose response assay to identify inhibitors of COUP-TFII (NR2F2).; type: functional;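 also: HEK293 cells transiently cotransfected with COUP-TFII expression vector and reporter; luciferase reporter luminescence driven by COUP-TFII from the pX2-168 reporter plasmid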
T4 sequence (P24468 whole entry): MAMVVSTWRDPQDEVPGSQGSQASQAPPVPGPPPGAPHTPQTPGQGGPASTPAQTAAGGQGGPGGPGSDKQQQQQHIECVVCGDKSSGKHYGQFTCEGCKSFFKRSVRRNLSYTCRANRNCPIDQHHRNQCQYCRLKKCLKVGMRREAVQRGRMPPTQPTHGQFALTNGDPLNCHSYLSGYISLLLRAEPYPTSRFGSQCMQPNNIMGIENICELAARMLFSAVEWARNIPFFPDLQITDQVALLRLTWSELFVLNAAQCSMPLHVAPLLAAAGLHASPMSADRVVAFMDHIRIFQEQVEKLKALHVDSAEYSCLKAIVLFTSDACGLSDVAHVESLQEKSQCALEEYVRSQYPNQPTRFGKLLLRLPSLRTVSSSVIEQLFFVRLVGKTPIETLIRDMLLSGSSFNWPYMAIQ

HEK293 = test: Fluorescence-based counterscreen for potentiators or agonists of NPY-Y2: cell-based high-throughput dose response assay to identify inhibitors of cyclic nucleotide gated ion channel (CNGC) activity. In this assay, the parental HEK293 cell line transfected with a cyclic-nucleotide gated ion channel (CNGC)-based cAMP sensor is used to measure inhibition of isoproterenol-induced CNGC activity by test compound.; type: functional; details: Homo sapiens
[22] = activation of miR-122 Renilla sensor silencing – cell-based, Huh7 psiCHECK-miR122, Renilla luciferase, cherry-picked, dose response (AID 651956); type: functional;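 also: huh7 hepatoma cells stably carrying a psiCHECK-2 miR-122 sensor plasmid; renilla luciferase signal reporting endogenous miR-122 activity after 48 h compound exposure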
[23] = general mammalian cell viability loss – inhibitor set, cherry-pick, set 2, cytotoxicity control for miR-122 modulator project, dose response (AID 720697); type: functional, cell-based
[24] = general mammalian cell viability loss – activator set, cherry-pick, cytotoxicity control for miR-122 modulator project, dose response (AID 720690); type: functional, cell-based;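 also: HEK293T human cells scored for general mammalian cytotoxicity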
Galanin receptor type 2 = Galanin receptor type 2 (Homo sapiens, UniProt O43603); test: Dose Response cell-based high-throughput screening assay to identify antagonists of galanin receptor 2 (GALR2). [Related pubchem assays: 828, 866 ]; type: functional
[25] = HIV-1 AD8 envelope cell-cell fusion blockers – cherry-pick, dose response (AID 652062); type: functional, cell-based;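 also: luciferase signal from cell-cell fusion driven by HIV-1 clade B AD8 Env; potency is for inhibitors of fusion seen as a drop in luminescence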
[26] = molecular target: Neuropeptide Y receptor type 2 (Homo sapiens, UniProt P49146); test: Fluorescence-based cell-based high-throughput dose response assay for agonists of NPY-Y2. [Related pubchem assays: 1703 (Screening assay (CNGC inhibitors).), 1359 (Screening assay (NPY-Y2 potentiators or agonists).), 1304 (Screening assay (NPY-Y1 potentiators or agonists).), 1710 (Screening assay (NPY-Y2 agonists).), 1791 (Summary AID.)]; type: functional
[27] = molecular target: Serine/threonine-protein phosphatase (Homo sapiens, UniProt Q9BPW0); test: Counterscreen for inhibitors of PP1: fluorescence-based biochemical high throughput dose response assay to identify inhibitors of Protein Phosphatase 5 (PP5). [Related pubchem assays: 2034 (Summary (PP5 inhibitors)), 1987 (PP5 inhibitors in singlate), 2235 (PP1 inhibitors in singlate)]
[28] = molecular target: Serine/threonine-protein phosphatase PP1-alpha catalytic subunit (Homo sapiens, UniProt P62136); test: inhibition of protein phosphatase 1 activity – biochemical, fluorescence, dose response (AID 2403);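 also: phosphatase turnover of OMFP into fluorescent 3-O-methylfluorescein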
Sequence of Serine/threonine-protein phosphatase PP1-alpha catalytic subunit (P62136 whole entry): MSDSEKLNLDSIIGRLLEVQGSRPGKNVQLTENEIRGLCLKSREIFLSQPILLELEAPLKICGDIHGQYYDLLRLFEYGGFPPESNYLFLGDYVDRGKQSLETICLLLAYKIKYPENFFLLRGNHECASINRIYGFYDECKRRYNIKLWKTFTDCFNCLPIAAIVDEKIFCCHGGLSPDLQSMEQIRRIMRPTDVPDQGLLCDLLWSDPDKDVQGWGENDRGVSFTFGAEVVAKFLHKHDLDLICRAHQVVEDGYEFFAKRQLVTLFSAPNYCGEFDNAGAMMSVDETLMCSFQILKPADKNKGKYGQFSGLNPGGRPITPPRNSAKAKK

Sequence of Beta Lactamase (Q932Y6 whole entry): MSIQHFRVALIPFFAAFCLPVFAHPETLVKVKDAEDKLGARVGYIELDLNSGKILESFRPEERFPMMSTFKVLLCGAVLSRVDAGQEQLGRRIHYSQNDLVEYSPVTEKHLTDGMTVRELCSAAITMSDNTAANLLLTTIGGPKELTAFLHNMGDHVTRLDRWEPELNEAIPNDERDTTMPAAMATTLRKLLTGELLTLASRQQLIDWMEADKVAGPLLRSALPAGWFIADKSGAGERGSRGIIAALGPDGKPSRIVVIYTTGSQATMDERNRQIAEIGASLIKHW
Sequence of Galanin receptor type 2 (O43603 whole entry, the tested form may be a part): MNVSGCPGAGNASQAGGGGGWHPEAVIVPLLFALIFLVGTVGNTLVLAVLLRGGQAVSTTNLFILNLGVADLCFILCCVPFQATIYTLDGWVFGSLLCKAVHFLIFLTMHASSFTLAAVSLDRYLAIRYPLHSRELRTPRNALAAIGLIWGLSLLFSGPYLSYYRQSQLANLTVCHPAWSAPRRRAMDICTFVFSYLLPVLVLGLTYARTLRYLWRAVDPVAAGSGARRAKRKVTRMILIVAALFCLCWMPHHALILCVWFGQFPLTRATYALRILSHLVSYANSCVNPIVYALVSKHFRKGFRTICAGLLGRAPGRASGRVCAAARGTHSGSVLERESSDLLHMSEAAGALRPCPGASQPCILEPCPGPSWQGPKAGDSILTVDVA
Sequence of Neuropeptide Y receptor type 2 (P49146 whole entry): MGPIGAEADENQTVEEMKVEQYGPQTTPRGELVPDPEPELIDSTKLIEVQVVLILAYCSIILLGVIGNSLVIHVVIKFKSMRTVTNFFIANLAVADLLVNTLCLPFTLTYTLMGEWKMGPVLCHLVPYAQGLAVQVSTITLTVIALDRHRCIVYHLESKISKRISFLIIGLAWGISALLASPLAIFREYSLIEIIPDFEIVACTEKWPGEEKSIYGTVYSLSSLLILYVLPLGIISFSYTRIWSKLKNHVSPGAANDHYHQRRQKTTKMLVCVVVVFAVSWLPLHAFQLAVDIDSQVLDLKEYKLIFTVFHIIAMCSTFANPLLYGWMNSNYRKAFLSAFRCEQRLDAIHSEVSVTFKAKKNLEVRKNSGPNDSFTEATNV
Sequence of Wee1-like protein kinase (P30291 whole entry): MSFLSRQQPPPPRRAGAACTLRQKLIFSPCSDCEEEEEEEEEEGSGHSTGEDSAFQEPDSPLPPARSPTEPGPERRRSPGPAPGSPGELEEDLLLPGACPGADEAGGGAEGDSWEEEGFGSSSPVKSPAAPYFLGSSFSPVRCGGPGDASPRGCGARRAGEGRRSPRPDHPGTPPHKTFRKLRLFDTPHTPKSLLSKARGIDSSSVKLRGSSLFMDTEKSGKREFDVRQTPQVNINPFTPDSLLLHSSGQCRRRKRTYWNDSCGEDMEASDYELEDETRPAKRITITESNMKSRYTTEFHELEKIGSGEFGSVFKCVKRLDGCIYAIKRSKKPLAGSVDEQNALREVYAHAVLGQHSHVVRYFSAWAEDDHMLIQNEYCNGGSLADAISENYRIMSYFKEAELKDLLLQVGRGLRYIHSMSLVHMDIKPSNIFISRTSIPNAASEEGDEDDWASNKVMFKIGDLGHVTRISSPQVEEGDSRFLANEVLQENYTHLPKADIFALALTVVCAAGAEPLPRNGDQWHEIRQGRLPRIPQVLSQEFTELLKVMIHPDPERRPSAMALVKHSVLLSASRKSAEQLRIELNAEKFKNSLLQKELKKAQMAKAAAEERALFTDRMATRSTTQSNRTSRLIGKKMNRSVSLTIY
Sequence of G2/mitotic-specific cyclin-B1 (P14635 whole entry): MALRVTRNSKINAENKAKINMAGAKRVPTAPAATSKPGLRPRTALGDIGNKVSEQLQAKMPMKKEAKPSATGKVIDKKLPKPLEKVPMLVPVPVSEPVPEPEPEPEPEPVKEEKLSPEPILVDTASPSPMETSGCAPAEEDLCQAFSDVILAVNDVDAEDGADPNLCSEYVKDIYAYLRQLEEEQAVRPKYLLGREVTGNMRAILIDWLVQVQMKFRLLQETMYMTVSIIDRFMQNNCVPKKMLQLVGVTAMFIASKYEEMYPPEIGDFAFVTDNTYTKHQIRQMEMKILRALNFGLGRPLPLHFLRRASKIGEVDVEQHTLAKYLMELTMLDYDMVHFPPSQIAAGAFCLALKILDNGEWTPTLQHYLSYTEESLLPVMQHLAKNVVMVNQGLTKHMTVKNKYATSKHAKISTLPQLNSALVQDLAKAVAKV
Sequence of Serine/threonine-protein phosphatase (Q9BPW0 whole entry): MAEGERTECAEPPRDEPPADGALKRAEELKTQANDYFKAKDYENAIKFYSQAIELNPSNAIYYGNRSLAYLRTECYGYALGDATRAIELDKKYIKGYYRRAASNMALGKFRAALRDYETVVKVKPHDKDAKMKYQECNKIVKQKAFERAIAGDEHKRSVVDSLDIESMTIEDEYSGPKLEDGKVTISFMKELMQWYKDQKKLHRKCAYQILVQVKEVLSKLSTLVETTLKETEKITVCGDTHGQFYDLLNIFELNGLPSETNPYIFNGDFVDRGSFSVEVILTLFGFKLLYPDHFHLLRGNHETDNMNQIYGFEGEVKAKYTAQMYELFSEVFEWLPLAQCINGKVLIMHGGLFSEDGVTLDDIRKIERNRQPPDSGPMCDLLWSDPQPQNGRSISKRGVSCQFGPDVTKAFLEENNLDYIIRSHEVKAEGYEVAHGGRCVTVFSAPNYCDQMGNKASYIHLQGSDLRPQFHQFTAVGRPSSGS
Sequence of Neuropeptide Y receptor type 1 (P25929 whole entry, the tested form may be a part): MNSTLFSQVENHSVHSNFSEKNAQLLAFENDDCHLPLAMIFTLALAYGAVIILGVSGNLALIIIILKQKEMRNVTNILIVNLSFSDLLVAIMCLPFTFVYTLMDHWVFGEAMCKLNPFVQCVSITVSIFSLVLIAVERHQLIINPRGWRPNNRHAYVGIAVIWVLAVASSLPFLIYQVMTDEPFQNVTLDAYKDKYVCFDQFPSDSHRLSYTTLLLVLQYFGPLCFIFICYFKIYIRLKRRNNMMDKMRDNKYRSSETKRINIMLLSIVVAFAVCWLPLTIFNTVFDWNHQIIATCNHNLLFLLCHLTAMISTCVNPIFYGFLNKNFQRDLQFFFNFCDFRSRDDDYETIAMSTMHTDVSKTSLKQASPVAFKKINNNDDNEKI
Sequence of NS3 (A3EZJ3 whole entry): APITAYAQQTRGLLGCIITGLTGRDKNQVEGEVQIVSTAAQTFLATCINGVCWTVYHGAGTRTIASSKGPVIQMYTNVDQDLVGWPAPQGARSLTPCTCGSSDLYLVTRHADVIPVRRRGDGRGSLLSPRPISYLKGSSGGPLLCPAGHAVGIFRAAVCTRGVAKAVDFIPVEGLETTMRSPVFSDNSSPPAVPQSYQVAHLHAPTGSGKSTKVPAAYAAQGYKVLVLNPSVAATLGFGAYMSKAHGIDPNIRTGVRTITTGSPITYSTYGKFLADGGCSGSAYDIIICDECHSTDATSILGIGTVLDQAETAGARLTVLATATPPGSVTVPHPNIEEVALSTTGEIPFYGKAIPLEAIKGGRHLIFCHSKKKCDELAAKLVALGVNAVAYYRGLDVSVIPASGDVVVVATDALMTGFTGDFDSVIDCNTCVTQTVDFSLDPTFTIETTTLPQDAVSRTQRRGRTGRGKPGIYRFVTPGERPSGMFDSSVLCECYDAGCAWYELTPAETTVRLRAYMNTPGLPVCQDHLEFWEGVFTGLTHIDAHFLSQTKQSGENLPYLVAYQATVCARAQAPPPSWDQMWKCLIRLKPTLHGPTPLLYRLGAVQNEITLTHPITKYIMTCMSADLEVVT
Sequence of Sphingosine 1-phosphate receptor 1 (P21453 whole entry): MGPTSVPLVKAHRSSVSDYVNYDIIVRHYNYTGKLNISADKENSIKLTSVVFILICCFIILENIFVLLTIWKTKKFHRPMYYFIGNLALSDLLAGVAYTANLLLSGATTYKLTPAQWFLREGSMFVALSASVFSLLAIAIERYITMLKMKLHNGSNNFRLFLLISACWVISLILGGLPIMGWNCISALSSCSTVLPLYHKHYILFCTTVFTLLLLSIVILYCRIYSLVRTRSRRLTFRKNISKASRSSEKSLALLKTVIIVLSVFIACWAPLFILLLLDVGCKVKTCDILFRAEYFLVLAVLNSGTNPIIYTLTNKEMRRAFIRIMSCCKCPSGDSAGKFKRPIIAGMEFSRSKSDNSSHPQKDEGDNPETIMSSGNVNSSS

## O=C(OCn1ncc(Br)c(Br)c1=O)c1ccccc1Cl
[1]
  CC50: 17.8 µM (active)
[2]
  IC50: 15.3 µM (not active)
[3]
  IC50: 1.75 µM (active)
CHO
  IC50: 1.46 µM (active)
[4]
  EC50: 1.88 µM (active)
[5]
  CC50: 5.45 µM (active)
[6]
  CC50: 5.77 µM (active)
[7]
  AC50: 8.37 µM (active)
Beta Lactamase
  IC50: > 49.8 µM (inactive)
Cells [8]
  IC50: 3.24 µM (active)
Protein RecA
  EC50: 0.472 µM (active)
HeLa
  CC50: > 1.22 µM (not active)
[9]
  AC50: 2 µM (active)
[10]
  EC50: 2.03 µM (active)
INS1
  AC50: 4.76 µM (active)

## O=C(Nc1ccc(NC(=O)c2cc3ccccc3o2)cc1)c1ccc2c(c1)OCCO2
[11]
  EC50: 2.35 µM (active)
[12]
  EC50: 3.02 µM (active)
[13]
  EC50: 12.7 µM (active)
[14]
  EC50: < 0.1 µM (active)
[15]
  IC50: > 80 µM (inactive)
Cells [16]
  EC50: > 12 µM (not active)

## Cc1cccc(NC2=NC(=O)/C(=C/C=C/c3ccco3)S2)c1C
NS3
  IC50: 5.49 µM (active)
[17]
  CC50: 12.1 µM (active)

## COc1ccccc1-c1ccc(SCc2ccccc2F)nn1
[18]
  EC50: > 49.7 µM (not active)
Wee1-like protein kinase
  EC50: > 49.7 µM (not active)

## CC(=O)c1c(C)[nH]c(C(=O)OCCCCN2C(=O)c3ccccc3C2=O)c1C
[19]
  EC50: > 35.4 µM (not active)
[20]
  AC50: > 70 µM (inactive)
[21]
  IC50: 7.55 µM (active)
HEK293
  EC50: > 35.4 µM (not active)
[22]
  AC50: 38.4 µM (active)
[23]
  AC50: 7.33 µM (active)
[24]
  AC50: 12.5 µM (active)
Galanin receptor type 2
  IC50: > 42 µM (not active)
[25]
  AC50: 6.13 µM (active)
[26]
  EC50: > 35.4 µM (not active)
INS1
  AC50: 6.57 µM (active)

## COc1ccc(/C=N/Nc2cc(C)nc(-n3nc(C)cc3C)n2)cc1
[27]
  IC50: > 67 µM (not active)
[28]
  IC50: 5.81 µM (active)
[5]
  CC50: 8.36 µM (active)
[6]
  CC50: 6.97 µM (active)
Cells [8]
  IC50: < 0.1 µM (active)
INS1
  AC50: 2.42 µM (active)
